Key:
[1] = system: NCI-H358 (K-Ras G12C); assay: CellTiter-Glo cell viability assay; assay type: cell-based; details: Homo sapiens, NCI-H358, 120 h, read-out: H358 Cell Viability assay data IC50, K-Ras G12C, 5-day treatment
How it was run: (§1)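 Direct compound addition to plated cells; 5-day exposure; ~30 min RT equilibration; CellTiter-Glo luminescence. Normalization: (sample/avg DMSO)*100; 4-parameter logistic curve fit.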

[2] = system: AsPC-1 (K-Ras G12D); assay: CellTiter-Glo cell viability assay; assay type: cell-based; details: Homo sapiens, ASPC1, 120 h, read-out: AsPC-1 Cell Viability assay data IC50, K-Ras G12D, 5-day treatment
How it was run: as §1

[3] = biological target: KRAS G12S (Homo sapiens, UniProt P01116+P62937, G12S); assay: Ras-Raf disruption / FRET / MOA assay (BRAF RBD); assay type: biochemical; details: KRAS G12S FRET data IC50, Ras-Raf disruption, with Cyclophilin A
How it was run: (§2)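 Compound-induced Ras–Cyclophilin A ternary complex disrupting BRAF RBD binding, read as IC50 from reduced TR-FRET ratio relative to DMSO. Final: Ras-GMPPNP 12.5 nM, BRAF RBD 50 nM, Cyclophilin A 25 μM, top compound 30 μM (3-fold, 10 points); 3 h at 25 °C, then 1.5 h with detection antibodies.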

[4] = biological target: NRAS Q61R (Homo sapiens, UniProt P01111+P62937, Q61R); assay: Ras-Raf disruption / FRET / MOA assay (BRAF RBD); assay type: biochemical
How it was run: as §2

[5] = biological target: NRAS Q61K (Homo sapiens, UniProt P01111+P62937, Q61K); assay: Ras-Raf disruption / FRET / MOA assay (BRAF RBD); assay type: biochemical
How it was run: as §2

[6] = biological target: NRAS G12C (Homo sapiens, UniProt P01111+P62937, G12C); assay: Ras-Raf disruption / FRET / MOA assay (BRAF RBD); assay type: biochemical; details: NRAS G12C FRET data IC50, NRAS G12C
How it was run: as §2

[7] = biological target: KRAS G12D (Homo sapiens, UniProt P01116+P62937, G12D); assay: Ras-Raf disruption / FRET / MOA assay (BRAF RBD); assay type: biochemical; details: KRAS G12D FRET data IC50, Ras-Raf disruption, with Cyclophilin A
How it was run: as §2

[8] = biological target: KRAS G13D (Homo sapiens, UniProt P01116+P62937, G13D); assay: Ras-Raf disruption / FRET / MOA assay (BRAF RBD); assay type: biochemical; details: KRAS G13D FRET data IC50, Ras-Raf disruption, with Cyclophilin A
How it was run: as §2

[9] = biological target: NRAS WT (Homo sapiens, UniProt P01111+P62937); assay: Ras-Raf disruption / FRET / MOA assay (BRAF RBD); assay type: biochemical
How it was run: as §2

[10] = biological target: KRAS WT (Homo sapiens, UniProt P01116+P62937); assay: Ras-Raf disruption / FRET / MOA assay (BRAF RBD); assay type: biochemical; details: KRAS WT FRET data IC50, Ras-Raf disruption, with Cyclophilin A
How it was run: as §2

[11] = biological target: KRAS G12V (Homo sapiens, UniProt P01116+P62937, G12V); assay: Ras-Raf disruption / FRET / MOA assay (BRAF RBD); assay type: biochemical; details: KRAS G12V FRET data IC50, Ras-Raf disruption, with Cyclophilin A
How it was run: as §2

[12] = biological target: KRAS G13C (Homo sapiens, UniProt P01116+P62937, G13C); assay: Ras-Raf disruption / FRET / MOA assay (BRAF RBD); assay type: biochemical; details: KRAS G13C FRET data IC50, Ras-Raf disruption, with Cyclophilin A
How it was run: as §2

[13] = biological target: KRAS Q61H (Homo sapiens, UniProt P01116+P62937, Q61H); assay: Ras-Raf disruption / FRET / MOA assay (BRAF RBD); assay type: biochemical
How it was run: as §2

[14] = system: AsPC-1 (K-Ras G12D); assay: Potency assay: pERK; assay type: cell-based; details: Homo sapiens, ASPC1, read-out: pERK EC50
[15] = biological target: KRAS G12C (Homo sapiens, UniProt P01116+P62937, G12C); assay: Ras-Raf disruption / FRET / MOA assay (BRAF RBD); assay type: biochemical; details: KRAS G12C FRET data IC50, Ras-Raf disruption, with Cyclophilin A
How it was run: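 TR-FRET read-out after 1.5 h with anti-His Eu-W1024 (10 nM) and anti-GST APC (50 nM), following 3 h at 25 °C of compound (top 30 μM, 3-fold, 10 points) with 25 μM Cyclophilin A, 12.5 nM GMPPNP-loaded K-Ras G12C and 50 nM BRAF RBD; IC50 reported.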

Chain of KRAS Q61H (P01116 1-169 isoform P01116-2 Q61H limits assumed): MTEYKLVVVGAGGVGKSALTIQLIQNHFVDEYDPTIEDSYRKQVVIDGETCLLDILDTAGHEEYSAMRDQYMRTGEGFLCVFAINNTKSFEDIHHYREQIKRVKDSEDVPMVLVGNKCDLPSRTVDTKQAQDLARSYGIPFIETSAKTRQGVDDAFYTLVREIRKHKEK
Chain of KRAS Q61H (P62937 whole entry): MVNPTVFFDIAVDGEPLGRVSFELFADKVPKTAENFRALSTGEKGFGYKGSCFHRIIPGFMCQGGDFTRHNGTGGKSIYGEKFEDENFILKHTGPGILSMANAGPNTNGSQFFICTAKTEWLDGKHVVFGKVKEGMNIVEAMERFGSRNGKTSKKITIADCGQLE
Chain of KRAS G12S (P01116 1-169 isoform P01116-2 G12S limits assumed): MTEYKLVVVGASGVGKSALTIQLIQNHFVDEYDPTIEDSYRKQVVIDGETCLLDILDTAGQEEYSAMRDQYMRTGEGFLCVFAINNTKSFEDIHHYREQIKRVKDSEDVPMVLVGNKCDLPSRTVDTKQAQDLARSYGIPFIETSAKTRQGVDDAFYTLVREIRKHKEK
Chain of KRAS G12S (P62937 whole entry): as the sequence (P62937 whole entry) above
Chain of KRAS G12D (P01116 1-169 isoform P01116-2 G12D limits assumed): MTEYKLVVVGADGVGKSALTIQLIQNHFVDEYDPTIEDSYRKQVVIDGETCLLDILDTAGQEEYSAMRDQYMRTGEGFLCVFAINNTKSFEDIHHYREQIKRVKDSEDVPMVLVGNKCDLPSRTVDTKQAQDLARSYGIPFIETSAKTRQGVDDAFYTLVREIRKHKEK
Chain of KRAS G12D (P62937 whole entry): as the sequence (P62937 whole entry) above
Chain of KRAS G13C (P01116 1-169 isoform P01116-2 G13C limits assumed): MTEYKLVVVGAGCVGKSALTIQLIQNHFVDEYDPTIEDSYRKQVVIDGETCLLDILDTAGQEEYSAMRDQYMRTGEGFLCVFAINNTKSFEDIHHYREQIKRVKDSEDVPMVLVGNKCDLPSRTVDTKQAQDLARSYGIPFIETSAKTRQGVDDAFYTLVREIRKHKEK
Chain of KRAS G13C (P62937 whole entry): as the sequence (P62937 whole entry) above
Chain of KRAS G12V (P01116 1-169 isoform P01116-2 G12V limits assumed): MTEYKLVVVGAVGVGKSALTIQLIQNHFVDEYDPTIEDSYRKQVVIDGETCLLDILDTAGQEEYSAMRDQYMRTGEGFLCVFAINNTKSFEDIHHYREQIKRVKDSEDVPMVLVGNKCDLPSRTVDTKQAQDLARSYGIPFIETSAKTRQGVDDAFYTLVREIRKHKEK
Chain of KRAS G12V (P62937 whole entry): as the sequence (P62937 whole entry) above
Chain of NRAS Q61K (P01111 whole entry Q61K): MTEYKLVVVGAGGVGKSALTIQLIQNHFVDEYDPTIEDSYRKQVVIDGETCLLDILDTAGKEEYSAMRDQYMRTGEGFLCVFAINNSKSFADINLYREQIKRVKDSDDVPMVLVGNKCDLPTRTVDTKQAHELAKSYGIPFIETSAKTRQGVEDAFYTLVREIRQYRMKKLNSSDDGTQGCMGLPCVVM
Chain of NRAS Q61K (P62937 whole entry): as the sequence (P62937 whole entry) above
Chain of NRAS G12C (P01111 whole entry G12C): as the sequence (P01111 whole entry Q61K) above, with G12C, K61Q counted along it
Chain of NRAS G12C (P62937 whole entry): as the sequence (P62937 whole entry) above
Chain of KRAS WT (P01116 1-169 isoform P01116-2 limits assumed): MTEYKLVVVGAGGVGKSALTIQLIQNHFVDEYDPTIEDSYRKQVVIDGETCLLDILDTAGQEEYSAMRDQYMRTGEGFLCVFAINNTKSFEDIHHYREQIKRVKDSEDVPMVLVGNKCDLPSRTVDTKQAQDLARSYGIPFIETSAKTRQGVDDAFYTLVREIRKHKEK
Chain of KRAS WT (P62937 whole entry): as the sequence (P62937 whole entry) above
Chain of KRAS G13D (P01116 1-169 isoform P01116-2 G13D limits assumed): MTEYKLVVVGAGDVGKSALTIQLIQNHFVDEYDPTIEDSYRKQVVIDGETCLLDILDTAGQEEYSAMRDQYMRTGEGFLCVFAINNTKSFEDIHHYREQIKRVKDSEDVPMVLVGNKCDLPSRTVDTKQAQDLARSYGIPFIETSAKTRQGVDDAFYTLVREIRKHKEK
Chain of KRAS G13D (P62937 whole entry): as the sequence (P62937 whole entry) above
Chain of KRAS G12C (P01116 1-169 isoform P01116-2 G12C limits assumed): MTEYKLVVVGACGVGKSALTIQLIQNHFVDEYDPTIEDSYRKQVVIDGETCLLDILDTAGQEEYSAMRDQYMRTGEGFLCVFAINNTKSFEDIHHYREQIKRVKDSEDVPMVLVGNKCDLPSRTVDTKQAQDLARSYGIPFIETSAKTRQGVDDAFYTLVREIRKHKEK
Chain of KRAS G12C (P62937 whole entry): as the sequence (P62937 whole entry) above
Chain of NRAS Q61R (P01111 whole entry Q61R): as the sequence (P01111 whole entry Q61K) above, with K61R counted along it
Chain of NRAS Q61R (P62937 whole entry): as the sequence (P62937 whole entry) above
Chain of NRAS WT (P01111 whole entry): as the sequence (P01111 whole entry Q61K) above, with K61Q counted along it
Chain of NRAS WT (P62937 whole entry): as the sequence (P62937 whole entry) above

`CCn1c(-c2cccnc2[C@H](C)OC)c2c3cc(ccc31)-c1cc(O)cc(c1)C[C@H](NC(=O)[C@H](C(C)C)N(C)C(=O)CN(C)C(=O)[C@H]1CN1CC1(C)COC1)C(=O)N1CCC[C@H](N1)C(=O)OCC(C)(C)C2` (some centres unmarked) [Example 279] gave an IC50 [1] of under 10 nM, an IC50 [2] of 100 to 1000 nM and an IC50 [3] of 10 to 100 nM. The IC50 [4] was 100 to 1000 nM, the IC50 [5] was 100 to 1000 nM and the IC50 [6] was 10 to 100 nM. The IC50 [7] was 100 to 1000 nM, the IC50 [8] was 100 to 1000 nM and the IC50 [9] was 10 to 100 nM. For the same compound, the IC50 [10] was 10 to 100 nM, the IC50 [11] was 10 to 100 nM and the IC50 [12] was 10 to 100 nM. The IC50 [13] was 10 to 100 nM, the EC50 [14] was under 5000 nM and the IC50 [15] was 10 to 100 nM.

Compound `CCn1c(-c2cccnc2[C@H](C)OC)c2c3cc(ccc31)-c1cc(O)cc(c1)C[C@H](NC(=O)[C@H](C(C)C)N(C)C(=O)CN(C)C(=O)[C@H]1N[C@H]1C1CCC1)C(=O)N1CCC[C@H](N1)C(=O)OCC(C)(C)C2` [Example 288] has an IC50 [1] of 10 to 100 nM, an IC50 [2] of 100 to 1000 nM and an IC50 [3] of 10 to 100 nM. It also gave an IC50 [4] of 100 to 1000 nM, an IC50 [5] of 100 to 1000 nM and an IC50 [6] of 10 to 100 nM. For the same compound, the IC50 [7] was 100 to 1000 nM, the IC50 [8] was 10 to 100 nM and the IC50 [9] was 10 to 100 nM. It also gave an IC50 [10] of 10 to 100 nM, an IC50 [11] of 10 to 100 nM and an IC50 [12] of 10 to 100 nM. The IC50 [13] was 10 to 100 nM, the EC50 [14] was under 5000 nM and the IC50 [15] was 10 to 100 nM.

`CCn1c(-c2cccnc2[C@H](C)OC)c2c3cc(ccc31)-c1cc(O)cc(c1)C[C@H](NC(=O)[C@H](C(C)C)N(C)C(=O)CN(C)C(=O)[C@@H]1CN1CCCOC(C)=O)C(=O)N1CCC[C@H](N1)C(=O)OCC(C)(C)C2` (some centres unmarked) [Example 267] was tested, and the IC50 [1] was under 10 nM, the IC50 [2] was 100 to 1000 nM and the IC50 [3] was 10 to 100 nM. It also gave an IC50 [4] of 100 to 1000 nM, an IC50 [5] of 100 to 1000 nM and an IC50 [6] of under 10 nM. For the same compound, the IC50 [7] was 10 to 100 nM, the IC50 [8] was 100 to 1000 nM and the IC50 [10] was 10 to 100 nM. For the same compound, the IC50 [11] was 10 to 100 nM, the IC50 [12] was 10 to 100 nM and the IC50 [13] was 10 to 100 nM. For the same compound, the EC50 [14] was under 5000 nM and the IC50 [15] was under 10 nM.

Work on `CCn1c(-c2cccnc2[C@H](C)OC)c2c3cc(ccc31)-c1cc(O)cc(c1)C[C@H](NC(=O)[C@H](C(C)C)N(C)C(=O)CN(C)C(=O)[C@@H]1CN1CCCOC)C(=O)N1CCC[C@H](N1)C(=O)OCC(C)(C)C2` (some centres unmarked) [Example 137] yielded an IC50 [1] of under 10 nM, an IC50 [2] of 100 to 1000 nM and an IC50 [3] of 10 to 100 nM. The IC50 [6] was under 10 nM, the IC50 [7] was 10 to 100 nM and the IC50 [8] was 10 to 100 nM. It also gave an IC50 [10] of 10 to 100 nM, an IC50 [11] of 10 to 100 nM and an IC50 [12] of 10 to 100 nM. The EC50 [14] was under 5000 nM and the IC50 [15] was under 10 nM.

Compound `CCn1c(-c2cccnc2[C@H](C)OC)c2c3cc(ccc31)-c1cc(O)cc(c1)C[C@H](NC(=O)[C@H](C(C)C)N(C)C(=O)[C@H](C)N(C)C(=O)[C@H]1CN1)C(=O)N1CCC[C@H](N1)C(=O)OCC(C)(C)C2` [Example 102] has an IC50 [1] of 10 to 100 nM, an IC50 [2] of 100 to 1000 nM and an IC50 [3] of 100 to 1000 nM. For the same compound, the IC50 [6] was 10 to 100 nM, the IC50 [7] was 100 to 1000 nM and the IC50 [8] was 100 to 1000 nM. For the same compound, the IC50 [10] was 10 to 100 nM, the IC50 [11] was 100 to 1000 nM and the IC50 [12] was 10 to 100 nM. For the same compound, the EC50 [14] was under 5000 nM and the IC50 [15] was 10 to 100 nM.

In the case of `CCn1c(-c2cccnc2[C@H](C)OC)c2c3cc(ccc31)-c1cc(O)cc(c1)C[C@H](NC(=O)[C@H](C(C)C)N(C)C(=O)CN(C)C(=O)C1CN1CCOC)C(=O)N1CCC[C@H](N1)C(=O)OCC(C)(C)C2` (some centres unmarked) [Example 90], the IC50 [1] is reported as under 10 nM, the IC50 [2] is reported as 100 to 1000 nM and the IC50 [3] is reported as 10 to 100 nM. It also gave an IC50 [6] of under 10 nM, an IC50 [7] of 100 to 1000 nM and an IC50 [8] of 100 to 1000 nM. For the same compound, the IC50 [10] was 10 to 100 nM, the IC50 [11] was 10 to 100 nM and the IC50 [12] was 10 to 100 nM. The EC50 [14] was under 5000 nM and the IC50 [15] was under 10 nM.

Source: patent publication US20230233569A1 (Revolution Medicines, Inc., priority 2020, published 2023)
